Source: PMC4136709 (ACS Chemical Biology, 2014)

Experiments:
PhaCRe = biological target: T1, PhaCRe (Cupriavidus necator, UniProt P23608); experiment: discontinuous DTNB assay of CoA release; assay type: biochemical
T1 sequence (P23608 1-589): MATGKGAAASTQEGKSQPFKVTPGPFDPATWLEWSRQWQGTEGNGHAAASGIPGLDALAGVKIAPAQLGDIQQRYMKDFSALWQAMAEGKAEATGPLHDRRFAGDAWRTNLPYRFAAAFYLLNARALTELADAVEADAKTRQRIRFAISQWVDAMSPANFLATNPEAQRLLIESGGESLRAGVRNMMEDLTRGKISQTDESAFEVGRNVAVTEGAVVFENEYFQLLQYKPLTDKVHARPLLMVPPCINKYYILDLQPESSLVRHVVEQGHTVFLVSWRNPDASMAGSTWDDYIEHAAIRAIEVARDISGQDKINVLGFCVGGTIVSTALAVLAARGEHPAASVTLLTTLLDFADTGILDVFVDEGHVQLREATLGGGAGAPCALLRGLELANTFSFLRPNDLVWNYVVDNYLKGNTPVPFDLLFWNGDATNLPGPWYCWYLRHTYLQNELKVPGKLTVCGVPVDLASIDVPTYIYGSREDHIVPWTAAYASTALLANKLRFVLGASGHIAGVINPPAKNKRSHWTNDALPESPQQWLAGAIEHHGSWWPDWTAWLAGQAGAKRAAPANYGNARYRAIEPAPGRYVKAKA

PhaECAv = biological target: T2, PhaECAv (Allochromatium vinosum, UniProt P45370); experiment: discontinuous DTNB assay of CoA release; assay type: biochemical
T2 sequence (P45370 1-355): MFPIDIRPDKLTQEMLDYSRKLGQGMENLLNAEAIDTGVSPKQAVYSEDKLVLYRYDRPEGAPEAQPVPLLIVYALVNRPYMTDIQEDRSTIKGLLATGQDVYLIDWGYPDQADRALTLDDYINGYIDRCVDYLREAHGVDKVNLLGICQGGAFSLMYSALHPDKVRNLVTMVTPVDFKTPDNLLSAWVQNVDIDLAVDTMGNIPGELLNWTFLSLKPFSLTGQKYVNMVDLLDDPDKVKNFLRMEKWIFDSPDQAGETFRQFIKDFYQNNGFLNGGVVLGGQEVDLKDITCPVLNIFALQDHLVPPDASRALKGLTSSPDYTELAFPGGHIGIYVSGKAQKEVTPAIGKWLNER
T2 sequence (P45372 1-357 partner): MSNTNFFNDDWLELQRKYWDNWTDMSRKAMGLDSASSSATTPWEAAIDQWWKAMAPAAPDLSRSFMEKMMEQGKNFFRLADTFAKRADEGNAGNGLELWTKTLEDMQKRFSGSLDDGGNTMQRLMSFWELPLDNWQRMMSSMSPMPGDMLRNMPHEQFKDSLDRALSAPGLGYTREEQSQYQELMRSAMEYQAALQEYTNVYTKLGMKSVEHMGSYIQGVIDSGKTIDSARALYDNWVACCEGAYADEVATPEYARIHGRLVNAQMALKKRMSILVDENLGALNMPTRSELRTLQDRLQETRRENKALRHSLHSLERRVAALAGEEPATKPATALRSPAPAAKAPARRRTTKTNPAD

C[C@@H](O)CC(=O)CCCNC(=O)CCNC(=O)[C@H](O)C(C)(C)COP(=O)(O)OP(=O)(O)OC[C@H]1O[C@@H](n2cnc3c(N)ncnc32)[C@H](O)[C@@H]1OP(=O)(O)O [compound 1, HBCH2CoA]
Ki (PhaCRe): 14.1 µM
Ki (PhaECAv): 40.1 µM
